Experimental data: ChEMBL document CHEMBL2046391, “Calyxamides A and B, cytotoxic cyclic peptides from the marine sponge Discodermia calyx” (J Nat Prod, 2012)
Calls of active or inactive are those of the source.

Columns and labels:
Caco-2 = assay: Antiproliferative activity against human Caco2 cells at 100 uM by XTT assay; format: functional, cell-based
MCF7 = assay: Antiproliferative activity against human MCF7 cells at 100 uM by XTT assay; format: functional, cell-based
Saccharomyces cerevisiae = assay: Antimicrobial activity against Saccharomyces cerevisiae at 100 ug/disc measured every 24 hrs for 4 days by disc diffusion method; format: functional, organism-based
Colletotrichum acutatum = assay: Antimicrobial activity against Colletotrichum acutatum at 100 ug/disc measured every 24 hrs for 4 days by disc diffusion method; format: functional, organism-based
Beauveria bassiana = assay: Antimicrobial activity against Beauveria bassiana ARSEF 8354 at 100 ug/disc measured every 24 hrs for 4 days by disc diffusion method; format: functional
Bacillus cereus = assay: Antimicrobial activity against Bacillus cereus at 100 ug/disc measured every 24 hrs for 4 days by disc diffusion method; format: functional, organism-based
Lactuca sativa = assay: Phytotoxicity against lettuce seedling at 50 ug/mL by seedling elongation assay; format: functional, organism-based
Aedes aegypti = assay: Insecticidal activity against Aedes aegypti larvae at 100 ug/mL after 24 hrs; format: functional, organism-based
Drosophila melanogaster = assay: Insecticidal activity against Drosophila melanogaster at 100 ug; format: functional, organism-based
Botrytis cinerea = assay: Antimicrobial activity against Botrytis cinerea at 100 ug/disc measured every 24 hrs for 4 days by disc diffusion method; format: functional, organism-based
Escherichia coli = assay: Antimicrobial activity against Escherichia coli at 100 ug/disc measured every 24 hrs for 4 days by disc diffusion method; format: functional, organism-based

Measured: Activity

CC[C@H](C)C[C@H](C)[C@H]1OC(=O)[C@H](Cc2ccccc2)NC(=O)/C(C)=C/[C@H](C)[C@@H](O)/C(C)=C/[C@H](C)[C@H](O)/C(C)=C\[C@@H]1C
inactive: Caco-2 | MCF7

CC[C@H](C)C[C@H](C)[C@H]1OC(=O)[C@H](Cc2ccccc2)NC(=O)/C(C)=C/[C@H](C)[C@@H](O)/C(C)=C/[C@H](C)[C@H](OC(C)=O)/C(C)=C/[C@@H]1C
not listed: Caco-2 | MCF7
inactive: all other assays above
